The values that follow are results of earlier work, collected in patent US8338382B2, “Method of treating impaired mitochondrial function” (priority 1997, dated 2012).

This series concerns depressed patients. Conditions: literature (Sabelli 2002, 2000).

As for `NCCc1ccccc1` [PEA, 2-Phenylethylamine], the “share of depressed patients in whom PEA is effective / controls depression” value is reported as 60% and the “toxic effects, tolerance or abuse” value was “no toxic effects, tolerance or abuse”.
